# Assay results from patent US7632814B2, “HYD1 peptides as anti-cancer agents” (University of South Florida, priority 2006, dated 2009).
# Where no end group is shown, it is not given here. [ ]: non-standard residue; d: D form.
# Legend:
# H929 MM = assay: SCID-Hu in vivo model, tumor burden; design: species or system SCID mice; details: H929, 8 mg/kg I.P. daily for 14 days starting day 28
# Method: Tumor burden was measured by circulating […] levels. On day 28 (before drug treatment), measurements were recorded for each individual mouse and subsequent values obtained weekly are represented as a ratio of day 28 (day X/day 28). N=4 mice per group. HYD1 was administered I.P. at 8 mg/kg daily for 14 days (starting day 28).
# SCID-Hu model. The SCID-Hu model was performed as previously described (Zhu K et al. Blood, 2005; 105:4759-4766). Briefly, SCID/Beige mice 4-6 weeks old were purchased from Taconic (Germantown, N.Y.). Fetal tissue (18-23 weeks) was obtained from Advance Bioscience Resource (Alameda, Calif.) in compliance with state and federal government regulations. Two bones were surgically implanted in the mammary fat pad of 6-8 week old female SCID mice. […] At 28 days, baseline tumor burden was quantified in the sera using either a lambda (8226) or kappa (H929) ELISA kit per manufacture instructions (Bethyl, Montgomery, Tex.) and mice were randomized into treatment groups. […] Tumor burden was assessed weekly by measuring kappa or lambda levels in the sera.
# The SCID-Hu model consists of implanting human fetal bone into the mammary mouse fat pad of SCID mice. […] Human paraprotein can be measured in the mouse sera and levels represent a good marker for evaluating tumor burden and response to chemotherapy. […]
# β1 integrin = target: T1, β1 integrin (Homo sapiens, UniProt P05556); assay: Binding of peptide to the cell surface
# T1 construct: endogenous in cells
# Text: Another aspect of the invention concerns a method of identifying modulators of peptide binding (a screen for molecules that displace peptide binding). Agents that are identified as being capable of competing with the HYD1 peptides of the invention for binding to β1 integrin may have utility as cytotoxic agents for research or therapy (e.g., for cancer treatment). The method comprising providing a candidate agent (such as a chemical compound, antibody, nucleic acid, or peptide); and determining whether the agent inhibits (e.g., disrupts, prevents, or interferes with), the ability of a HYD1 peptide of the invention (HYD1 or a fragment or variant thereof) to bind to β1 integrin on a cell surface (e.g., cancer cell surface) and/or inhibit β1 integrin mediated adhesion, in vitro or in vivo (e.g., in an animal model). Preferably, the cell is a cancer cell such as a myeloma cell or a cell of other cancer types (see, for example Table 1). Preferably, the peptide is labeled with a detectable moiety (e.g., a fluorescent tag, such as […]) to facilitate the determining step. Examples of controls that may be utilized in carrying out the screening method include, but are not limited to, unlabeled HYD1 peptides (HYD1, or a fragment or variant thereof); scrambled peptides (such as HYD1S); β1 integrin blocking antibody; and non-specific surface antigen binding antibody (such as CD138 for myeloma cells). Advantageously, using the screening assay, labeled HYD1 or fragments or variants thereof, can be used to screen candidates such as small molecules, on natural product libraries, in a rapid, high-throughput fashion. […] Fluorescence polarization (FP) analysis can be used to screen small molecule or natural product libraries for discovery of novel compounds that mimic the specific binding and potentially the biological activity of HYD1. The FP assay is based on the extent of depolarization of the free versus bond peptide, which can be accurately measured on commercially available FP plate readers. […] In summary, a high throughput screen (HTS) can be used to bind small molecules prior to the addition of an HYD1 probe and molecules of interest can be identified by displacement of bond peptide, with a corresponding increase in unbound peptide by FP analysis. An analogous high-throughput binding assay based on fluorescence polarization, which allows screening for small molecules that bind to the STAT3 SH2 domain, is described in Schust J. and Berg T., Anal Biochem., 2004 Jul. 1; 330(1):114-8. […]
# 8226 cells = assay: Detection of apoptosis, annexin V staining and FACS, suspension culture; assay type: cell-based
# Method: FIG. 17 is a graph showing that HYD1 induces apoptosis as a single agent in 8226 and H929 cells cultured in suspension. 8226 and H929 cells were either treated with varying concentrations of HYD1 or vehicle control (equal volume sterile double distilled water) for 24 hours and apoptotic cells were detected by FACS analysis of annexin V positive cells. HYD1 specific apoptosis equals cell death due to peptide minus any apoptosis detected in control cells.
# Detection of Apoptosis. A flow cytometric assay measuring Annexin V/PI staining was used to measure apoptotic cells following 24 hours of peptide exposure as previously described (Damiano J S et al. Blood, 1999; 93:1658-1667). The assay was performed in triplicate and 3 independent experiments were performed. Caspase 3 and 8 activity was measured at 6 and 24 hrs post peptide treatment per manufactures' instructions (BD Biosciences, San Jose, Calif.). The caspase assays were performed in triplicate and repeated twice.
# Myeloma cells were plated at a density of 400,000 cells per ml in a 24 well plate. Cells were treated with the indicated dose of the peptide for 24 hours. Following 24 hrs of peptide exposure, apoptotic cells were detected using Annexin V staining and FACS analysis. Ten thousand events were analyzed by flow cytometry (Becton Dickinson, San Jose, Calif.). Experiments were performed in triplicate and repeated twice. Shown is a representative figure.
# T1 sequence (P05556 21-798): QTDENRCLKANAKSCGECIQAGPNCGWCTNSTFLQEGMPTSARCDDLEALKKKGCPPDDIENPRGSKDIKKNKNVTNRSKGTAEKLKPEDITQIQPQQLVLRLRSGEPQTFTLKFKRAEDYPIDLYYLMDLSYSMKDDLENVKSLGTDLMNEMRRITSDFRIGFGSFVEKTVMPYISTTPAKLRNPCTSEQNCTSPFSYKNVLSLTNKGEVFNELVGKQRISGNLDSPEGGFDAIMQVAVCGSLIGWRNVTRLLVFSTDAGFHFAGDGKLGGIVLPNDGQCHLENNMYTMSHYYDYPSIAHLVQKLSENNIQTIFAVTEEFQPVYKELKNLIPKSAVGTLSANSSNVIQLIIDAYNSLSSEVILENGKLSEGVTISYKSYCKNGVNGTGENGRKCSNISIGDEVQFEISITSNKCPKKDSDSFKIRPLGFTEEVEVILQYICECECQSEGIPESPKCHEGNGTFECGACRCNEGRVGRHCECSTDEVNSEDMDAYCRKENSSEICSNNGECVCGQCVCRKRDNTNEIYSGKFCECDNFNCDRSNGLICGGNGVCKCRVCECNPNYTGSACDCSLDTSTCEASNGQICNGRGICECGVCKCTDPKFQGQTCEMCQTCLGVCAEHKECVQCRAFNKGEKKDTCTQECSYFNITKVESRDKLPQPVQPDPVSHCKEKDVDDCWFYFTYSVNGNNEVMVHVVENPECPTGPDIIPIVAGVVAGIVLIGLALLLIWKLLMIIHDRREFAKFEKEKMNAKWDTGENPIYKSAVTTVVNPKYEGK
substance,measurement,setting,value
kikmviswkg ([dK][dI][dK][dM][dV][dI][dS][dW][dK]G) [HYD1],tumor growth in vivo compared to vehicle control,H929 MM,reduces H929 MM growth in vivo
same,binding to the cell surface,β1 integrin,bind to the cell surface
same,blocking of cell surface binding by β1 integrin antibody,β1 integrin,is blocked
same,induction of annexin V positive cells,"8226 cells; suspension culture, single agent, 24 hours",dose dependent induction of annexin V positive cells
same,melphalan-induced apoptosis in cells cultured in suspension,"8226 cells; suspension, peptide with melphalan",increased melphalan-induced apoptosis
